Assays:
[1] = tested on: human potassium hERG channel; details: ref unpublished results; cited from earlier work
male and female rats [2] = experiment: Subchronic toxicity study
male and female rats [3] = experiment: Acute toxicity study; type: in vivo, rat
[4] = Pharmacokinetic study of URB937 in rats; type: in vivo, rat
[5] = ref unpublished results; cited from earlier work
[6] = tested on: OEA levels (biomarker of FAAH activity); experiment: OEA levels in liver and plasma after oral URB937; type: in vivo; details: rat, oral 0.3, 1, 3, 10 mg/kg, one hour
[7] = male and female rats, 100, 300, 1000 mg/kg oral for 14 days
[8] = male and female rats, single oral 100, 300, 1000 mg/kg
[9] = male rats, single oral 300 mg/kg, 7 days
[10] = male Sprague Dawley rats, 3 mg/kg oral

## NC(=O)c1cccc(-c2cc(OC(=O)NC3CCCCC3)ccc2O)c1 [URB937]
[1]
  inhibition of the human potassium hERG channel: does not inhibit
Male and female rats [2]; female rats, 300 mg/kg oral once daily for 14 days
  food intake: small increase
Male and female rats [2]; [7]
  macroscopic examination at necropsy and microscopic histopathology: did not reveal any abnormality
  mortality: None of the animals died
Male and female rats [2]; male and female rats, subchronic (2 weeks) oral administration of supramaximal doses
  tolerability: well tolerated
Male and female rats [2]; male rats only, 14-day oral administration
  plasma glucose levels: increase
Male and female rats [3]; female rats, single oral 100 mg/kg, 7 days
  food intake: small, but significant increase
Male and female rats [3]; female rats, single oral 1000 mg/kg, 7 days
  water consumption: larger increment
Male and female rats [3]; male and female rats, acute oral administration of supramaximal doses
  tolerability: well tolerated
Male and female rats [3]; [8]
  hematology and blood chemistry screens: no significant alterations
  macroscopic examination at necropsy and microscopic histopathology: did not reveal any abnormality
  mortality: None of the animals died
Male and female rats [3]; [9]
  cumulative food intake: reduced
  cumulative water intake: reduced
[4]; [10]
  AUCplasma, area under the curve: 656.2 ng·h/mL
  Tmax, time at which Cmax is reached: 1 h
  Vd, distribution volume: 17.9 L
[4]; male Sprague Dawley rats, 3 mg/kg oral vs intravenous
  F, oral bioavailability: 36%
[4]; male Sprague Dawley rats, 3 mg/kg oral, noncompartmental model
  Cl, clearance: 76.64 mL/min
[4]; male Sprague Dawley rats, 3 mg/kg oral, plasma
  Cmax, maximal plasma concentration: 159.47 ng/mL
[4]; male Sprague Dawley rats, 3 mg/kg oral, 3 mg/kg
  t1/2, terminal half-life: 2.702 h
[4]; male rats, 3 mg/kg oral
  t1/2 (cleared from circulation): approximately 3 h
[4]; male rats, 3 mg/kg oral, below limit of detection (LOD 50 pg/ml, LOQ 300 pg/ml)
  brain levels of URB937: < 0.05 ng/mL
[4]; rats, oral 0.3 to 100 mg/kg, 1 h after treatment
  plasma levels of URB937 in dose-escalation study: increased linearly in the dose range of 0.3 to 10 mg/kg and reached saturation between 30 mg/kg and 100 mg/kg
[5]
  genotoxic effects in the Ames' test: does not exert genotoxic effects
[6]
  OEA levels in liver: dose-dependent elevation
  OEA levels in plasma: dose-dependent elevation
